Laboratory results from PMC13047053, “Crystal structure of human INPP5K with an allosteric inhibitor reveals the structural basis for species specific potency” (Scientific Reports, 2026).

What was measured:
[1] = biological target: T1, human INPP5K-cd (catalytic domain, 1-328) (Homo sapiens, UniProt Q9BT40); test: Fluorescence polarization assay to evaluate phosphatase inhibition; type: biochemical; conditions: 20 µM diC8-PI(3,4,5)P3, 30 min
T1 construct: human INPP5K catalytic domain (amino acids 1–328, INPP5K-cd, UniProt ID: Q9BT40); His6-MBP (MBP amino acids 1–387) (N, cleaved yes); TEV protease site ENLYFQG (N, cleaved yes); made in house; host or cells: E. coli Rosetta2 (DE3)
T1 sequence (Q9BT40 1-328): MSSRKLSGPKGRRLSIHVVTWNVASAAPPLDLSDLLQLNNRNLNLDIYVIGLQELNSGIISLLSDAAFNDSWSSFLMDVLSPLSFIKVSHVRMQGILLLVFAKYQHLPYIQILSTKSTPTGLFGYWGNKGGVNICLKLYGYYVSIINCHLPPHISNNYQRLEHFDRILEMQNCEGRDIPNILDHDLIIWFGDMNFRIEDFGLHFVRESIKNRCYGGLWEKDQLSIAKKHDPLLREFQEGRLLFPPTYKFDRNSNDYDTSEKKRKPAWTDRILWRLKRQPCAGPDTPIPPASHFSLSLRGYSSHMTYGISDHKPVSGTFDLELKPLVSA
From the text: (§1) The oligonucleotides used for vector construction were synthesized and purchased from GenScript Inc. (Tokyo, Japan). The cDNA encoding human INPP5K catalytic domain (amino acids 1–328, INPP5K-cd, UniProt ID: Q9BT40), which excluded the SKICH region from the full-length INPP5K sequence, was cloned downstream of MBP (amino acids 1–387) with an N-terminal His6-tag in the pET28 expression vector, a Novagen product (Merck KGaA, Darmstadt, Germany). Between the MBP and INPP5K-cd sequences, the Tobacco Etch Virus protease cleavage site (ENLYFQG) was inserted, such that the MBP–INPP5K-cd fusion protein could be digested by TEV protease during purification. Furthermore, using the Gibson Assembly method, the sequence encoding the amino acids 280–299 ([…]) of INPP5K cd was replaced by the sequence encoding AKANPSGFLLTQKD, which corresponds to the amino acids 283–296 of the rat INPP5K-cd (UniProt ID: Q9R0B6), resulting in the deletion of six amino acid residues (delta-INPP5K-cd). The truncated construct was designed using a comparison between a structure model and the structures of several IP5Pases[9]–[11]. […] The concentration of protein obtained was measured using the Bradford method, with bovine serum albumin as the standard. Fractions corresponding to each purification step were analyzed by SDS-PAGE, followed by staining of the gel with Coomassie brilliant blue R-250. […]

[2] = biological target: T2, human delta-INPP5K-cd (loop-substituted catalytic domain) (Homo sapiens, UniProt Q9BT40, C280K/DEL284-290/G282N/G299D/H292G/INS279A/L297Q/R298K/S294L/S296T); test: as above; type: biochemical; conditions: 20 µM diC8-PI(3,4,5)P3, 30 min
T2 construct: human INPP5K catalytic domain (amino acids 1–328, INPP5K-cd, UniProt ID: Q9BT40); His6-MBP (MBP amino acids 1–387) (N, cleaved yes); TEV protease site ENLYFQG (N, cleaved yes); made in house; host or cells: E. coli Rosetta2 (DE3)
From the text: as §1

T2 sequence (Q9BT40 other isoform, or with tags, fused parts or gaps with the stated changes): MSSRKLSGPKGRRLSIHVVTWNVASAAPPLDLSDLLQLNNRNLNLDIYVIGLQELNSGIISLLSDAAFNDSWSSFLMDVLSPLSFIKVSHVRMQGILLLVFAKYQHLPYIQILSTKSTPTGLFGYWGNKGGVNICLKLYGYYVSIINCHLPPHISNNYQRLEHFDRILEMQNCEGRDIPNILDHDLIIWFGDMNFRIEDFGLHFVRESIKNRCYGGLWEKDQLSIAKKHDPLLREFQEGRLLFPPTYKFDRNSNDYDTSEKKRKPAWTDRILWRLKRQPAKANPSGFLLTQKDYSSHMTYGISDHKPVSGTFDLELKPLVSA

Question: For `CC(C)c1sc(NC(=O)c2ccccc2)c(C(=O)O)c1-c1ccccc1` [CPD-1], which IC50 [1] is on record?
Answer: Its IC50 is 2300 nM.

Question: And the IC50 [2]?
Answer: Its IC50 is 2900 nM.
